The target of one experiment is T1, CFTR (Homo sapiens, UniProt P13569).
T1 construct: endogenous in cells; host or cells: T84 human colonic cells (ECACC)
T1 sequence (P13569 whole entry): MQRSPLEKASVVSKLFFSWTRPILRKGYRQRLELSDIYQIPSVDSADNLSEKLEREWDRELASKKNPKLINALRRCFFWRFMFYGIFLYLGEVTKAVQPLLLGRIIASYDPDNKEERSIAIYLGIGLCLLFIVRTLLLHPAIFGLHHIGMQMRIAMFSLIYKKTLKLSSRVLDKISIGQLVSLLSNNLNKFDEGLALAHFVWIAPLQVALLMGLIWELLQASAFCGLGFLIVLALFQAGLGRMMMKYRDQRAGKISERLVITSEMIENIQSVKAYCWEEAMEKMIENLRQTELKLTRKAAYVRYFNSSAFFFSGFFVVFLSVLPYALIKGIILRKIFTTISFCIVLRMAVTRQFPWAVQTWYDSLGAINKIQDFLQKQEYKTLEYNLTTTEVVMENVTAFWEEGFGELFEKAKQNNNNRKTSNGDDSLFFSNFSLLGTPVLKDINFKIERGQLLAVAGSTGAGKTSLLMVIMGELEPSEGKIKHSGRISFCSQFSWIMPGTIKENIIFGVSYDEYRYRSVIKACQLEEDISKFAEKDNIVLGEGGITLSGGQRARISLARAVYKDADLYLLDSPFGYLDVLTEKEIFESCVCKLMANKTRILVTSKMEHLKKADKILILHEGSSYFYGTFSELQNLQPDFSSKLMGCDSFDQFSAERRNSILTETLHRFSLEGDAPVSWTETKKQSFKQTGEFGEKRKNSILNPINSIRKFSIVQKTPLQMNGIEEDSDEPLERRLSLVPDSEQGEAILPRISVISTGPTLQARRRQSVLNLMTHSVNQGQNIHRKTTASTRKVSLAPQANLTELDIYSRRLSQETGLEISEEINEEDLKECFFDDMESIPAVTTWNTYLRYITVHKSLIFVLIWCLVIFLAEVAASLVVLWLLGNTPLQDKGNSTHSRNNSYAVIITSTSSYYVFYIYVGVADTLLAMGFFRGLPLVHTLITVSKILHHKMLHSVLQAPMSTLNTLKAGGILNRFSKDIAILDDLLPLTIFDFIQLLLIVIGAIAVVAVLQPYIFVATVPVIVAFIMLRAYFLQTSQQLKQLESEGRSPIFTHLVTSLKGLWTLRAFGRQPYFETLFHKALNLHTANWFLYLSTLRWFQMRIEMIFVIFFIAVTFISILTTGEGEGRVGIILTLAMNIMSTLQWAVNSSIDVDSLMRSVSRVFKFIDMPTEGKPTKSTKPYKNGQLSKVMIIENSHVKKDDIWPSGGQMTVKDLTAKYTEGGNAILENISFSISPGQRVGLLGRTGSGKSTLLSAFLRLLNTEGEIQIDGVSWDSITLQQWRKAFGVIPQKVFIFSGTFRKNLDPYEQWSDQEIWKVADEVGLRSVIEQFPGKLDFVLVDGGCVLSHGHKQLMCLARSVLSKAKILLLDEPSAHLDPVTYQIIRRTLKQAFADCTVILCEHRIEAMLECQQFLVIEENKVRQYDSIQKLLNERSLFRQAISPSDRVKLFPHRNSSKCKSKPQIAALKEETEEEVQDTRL
The experiment in a line: T84 assay (FLIPR membrane potential dye, forskolin/IBMX-stimulated CFTR channel activity). Format: cell-based. As to conditions: imidazole and triazole-containing compounds (Tables 13, 14, 14′), read-out: IC50 (μM) (T84 assay). In short, it runs like this: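 Fluorescence from a membrane potential dye in T84 monolayers (HBSS with 10 mM Hepes) is followed each second for 150 s. Cells are exposed to test compound during the 45 min dye loading, then challenged with forskolin (10 μM) and IBMX (100 μM) to open CFTR. Inhibitors suppress the depolarization-driven fluorescence increase.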
The term IC50 denotes the concentration needed to halve the response being measured. In the case of `CC(C)Oc1ccc(CNC(=O)c2ncn(-c3cc(Cl)c(O)c(Cl)c3)n2)cc1` [28i, 1-(3,5-dichloro-4-hydroxyphenyl)-N-(4-isopropoxybenzyl)-1H-1,2,4-triazole-3-carboxamide], the IC50 was 16.8 µM. For the compound `CN(C(=O)c1ncn(-c2cc(Cl)c(O)c(Cl)c2)n1)c1ccc(OC(F)(F)F)cc1` [21i], the half-maximal inhibitory concentration (IC50) was determined as 15.7 µM. The same measure, in the same setting: as for `COCCOCCOCCOCCOCCOCCOCCOCCN(Cc1ccc(C(C)(C)C)cc1)C(=O)c1ncn(-c2cc(Cl)c(O)c(Cl)c2)n1` [117i, N-(4-tert-butylbenzyl)-1-(3,5-dichloro-4-hydroxyphenyl)-N-(2,5,8,11,14,17,20,23-octaoxapentacosan-25-yl)-1H-1,2,4-triazole-3-carboxamide], the figure is 21.4 µM; as for `O=C(c1ncn(-c2cc(Cl)c(O)c(Cl)c2)n1)N(Cc1ccccc1)Cc1cccc(OC(F)(F)F)c1` [84i, N-benzyl-1-(3,5-dichloro-4-hydroxyphenyl)-N-(3-(trifluoromethoxy)benzyl)-1H-1,2,4-triazole-3-carboxamide], 6.81 µM. Still for that read-out and setting: then `Cc1noc(C)c1CCNC(=O)c1ncn(-c2cc(Cl)c(O)c(Cl)c2)n1` [74i, 1-(3,5-dichloro-4-hydroxyphenyl)-N-(2-(3,5-dimethylisoxazol-4-yl)ethyl)-1H-1,2,4-triazole-3-carboxamide], with 1.28 µM; and `CC(NC(=O)c1ncn(-c2cc(Cl)c(O)c(Cl)c2)n1)c1ccc(Br)cc1` (stereo not shown) [32i, N-(1-(4-bromophenyl)ethyl)-1-(3,5-dichloro-4-hydroxyphenyl)-1H-1,2,4-triazole-3-carboxamide], with 10.3 µM; and `COCCOCCOCCON(Cc1ccc(Oc2ccccc2)cc1)C(=O)c1ncn(-c2cc(Cl)c(O)c(Cl)c2)n1` [123i, 1-(3,5-dichloro-4-hydroxyphenyl)-N-(2-(2-(2-methoxyethoxy)ethoxy)ethoxy)-N-(4-phenoxybenzyl)-1H-1,2,4-triazole-3-carboxamide], with 8.44 µM.

The same experiment, now with this note: isoxazole-containing compounds (Table 10, 10′, 11, 11′), read-out: IC50.
Take `CN(Cc1ccc(Cl)cc1)C(=O)c1cc(-c2cc(Br)c(O)c(Br)c2)on1` [5g, N-(4-chlorobenzyl)-5-(3,5-dibromo-4-hydroxyphenyl)-N-methylisoxazole-3-carboxamide]: the IC50 was found to be 5.31 µM. The same measure, in the same setting: as for `CN(Cc1ccc(C(F)(F)F)cc1)C(=O)c1cc(-c2cc(Cl)c(O)c(Cl)c2)on1` [7g, 5-(3,5-dichloro-4-hydroxyphenyl)-N-methyl-N-(4(trifluoromethyl)benzyl)isoxazole-3-carboxamide], the figure is 10.6 µM.

Still in this experiment, the particulars now being: oxadiazole-containing compounds (a series), average of at least 2 runs unless annotated n = 1, read-out: IC50.
Turning to `CCN(Cc1cccc(C(F)(F)F)c1)C(=O)c1nc(-c2cc(Br)c(O)c(Br)c2)no1` [60a, 3-(3,5-Dibromo-4-hydroxyphenyl)-N-ethyl-N-(3-(trifluormethyl)benzyl)-1,2,4-oxadiazole-5-carboxamide], the IC50 was 12.6 µM.

For `O=C(NCc1cc(F)c(F)c(F)c1)c1noc(-c2cc(Cl)c(O)c(Cl)c2)n1` [118a, 5-(3,5-dichloro-4-hydroxyphenyl)-N-(3,4,5-trifluorobenzyl)-1,2,4-oxadiazole-3-carboxamide], the IC50 was 5.67 µM.

With `COC(=O)C1CCN(C(=O)COc2c(Br)cc(-c3noc(C(=O)N4CCC(Cc5ccccc5)CC4)n3)cc2Br)CC1` [68a, methyl 1-(2-(4-(5-(4-benzylpiperidine-1-carbonyl)-1,2,4-oxadiazol-3-yl)-2,6-dibromophenoxy)acetyl)piperidine-4-carboxylate], the IC50 amounted to 10.3 µM. In the case of `C=CCN(Cc1cccc(OC(F)(F)F)c1)C(=O)c1nc(-c2cc(Cl)c(O)c(Cl)c2)no1` [169a, N-allyl-3-(3,5-dichloro-4-hydroxyphenyl)-N-(3-(trifluoromethoxy)benzyl)-1,2,4-oxadiazole-5-carboxamide], the IC50 stood at 2.95 µM. Same read-out and setting: as for `O=C(c1nc(-c2cc(Br)c(O)c(Br)c2)no1)N1CCC(C(O)(c2ccccc2)c2ccccc2)CC1` [203a, (3-(3,5-dibromo-4-hydroxyphenyl)-1,2,4-oxadiazol-5-yl)(4-(hydroxydiphenylmethyl)piperidin-1-yl)methanone], the figure is 25.9 µM. On the same count and under the same terms, as for `CN(Cc1cccc(C(F)(F)F)c1)C(=O)c1nc(-c2cc(Br)c(O)c(Br)c2)no1` [11a, 3-(3,5-dibromo-4-hydroxyphenyl)-N-methyl-N-(3-(trifluoromethyl)benzyl)-1,2,4-oxadiazole-5-carboxamide], the figure is 7.74 µM; as for `CC(C)Oc1ccc(Oc2ccc(CNC(=O)c3nc(-c4cc(Cl)c(O)c(Cl)c4)no3)cc2)cc1Cl` [180a, N-(4-(3-chloro-4-isopropoxyphenoxy)benzyl)-3-(3,5-dichloro-4-hydroxyphenyl)-1,2,4-oxadiazole-5-carboxamide], 10.3 µM; as for `O=C(c1nc(-c2cc(Cl)c(O)c(Cl)c2)no1)N(CCO)Cc1ccccc1` [121a, N-benzyl-3-(3,5-dichloro-4-hydroxyphenyl)-N-(2-hydroxyethyl)-1,2,4-oxadiazole-5-carboxamide], 19.2 µM.

Consider `O=C(Nc1ccc(Oc2ccccc2)cc1)c1nc(-c2cc(Br)c(O)c(Br)c2)no1` [104a, 3-(3,5-dibromo-4-hydroxyphenyl)-N-(4-phenoxyphenyl)-1,2,4-oxadiazole-5-carboxamide], for which the IC50 is 23 µM.

As to `O=C(NCc1cccc(OC(F)(F)F)c1)c1nc(-c2cc(Br)c(O)c(Br)c2)no1` [12a, 3-(3,5-dibromo-4-hydroxyphenyl)-N-(3-(trifluoromethoxy)benzyl)-1,2,4-oxadiazole-5-carboxamide], the IC50 was 7.89 µM.

In the case of `O=C(COc1c(Br)cc(-c2noc(C(=O)N3CCC(Cc4ccccc4)CC3)n2)cc1Br)N(CCO)CCO` [71a, 2-(4-(5-(4-benzylpiperidine-1-carbonyl)-1,2,4-oxadiazol-3-yl)-2,6-dibromophenoxy)-N,N-bis(2-hydroxyethyl)acetamide], the IC50 turned out to be 18.9 µM. Same read-out and setting: as for `CN(Cc1cccc(-c2ncccn2)c1)C(=O)c1nc(-c2cc(Cl)c(O)c(Cl)c2)no1` [176a, 3-(3,5-dichloro-4-hydroxyphenyl)-N-methyl-N-(3-(pyrimidin-2-yl)benzyl)-1,2,4-oxadiazole-5-carboxamide], the figure is 24.6 µM. The same measure, in the same setting: then `CN(Cc1ccc(Cl)cc1)C(=O)c1noc(-c2cc(Cl)c(O)c(Cl)c2)n1` [84a, N-(4-chlorobenzyl)-5-(3,5-dichloro-4-hydroxyphenyl)-N-methyl-1,2,4-oxadiazole-3-carboxamide], with 4.03 µM; and `CN(Cc1ccc(Oc2ccccc2)cc1)C(=O)c1nc(-c2cc(Cl)c(O)c(Cl)c2)no1` [142a, 3-(3,5-dichloro-4-hydroxyphenyl)-N-methyl-N-(4-phenoxybenzyl)-1,2,4-oxadiazole-5-carboxamide], with 10.2 µM. Still for that read-out and setting: then `CN(Cc1ccccc1)C(=O)c1nc(-c2cc(Cl)c(O)c(Cl)c2)no1` [62a, N-benzyl-3-(3,5-dichloro-4-hydroxyphenyl)-N-methyl-1,2,4-oxadiazole-5-carboxamide], with 18.6 µM. With `Cc1ccc(Oc2ccc(CNC(=O)c3nc(-c4cc(Cl)c(O)c(Cl)c4)no3)cc2)cc1Cl` [193a, N-(4-(3-chloro-4-methylphenoxy)benzyl)-3-(3,5-dichloro-4-hydroxyphenyl)-1,2,4-oxadiazole-5-carboxamide], the IC50 was found to be 13.6 µM. The same measure, in the same setting: then `O=C(NCc1ccccc1C(F)(F)F)c1nc(-c2cc(Cl)c(O)c(Cl)c2)no1` [129a, 3-(3,5-dichloro-4-hydroxyphenyl)-N-(2-(trifluoromethyl)benzyl)-1,2,4-oxadiazole-5-carboxamide], with 16.7 µM; and `O=C(NCc1ccc(N2CCCCC2)cc1)c1nc(-c2cc(Cl)c(O)c(Cl)c2)no1` [166a, 3-(3,5-dichloro-4-hydroxyphenyl)-N-(4-(piperidin-1-yl)benzyl)-1,2,4-oxadiazole-5-carboxamide], with 6.21 µM; and `O=C(NCc1cc(F)ccc1F)c1noc(-c2cc(Cl)c(O)c(Cl)c2)n1` [113a, 5-(3,5-dichloro-4-hydroxyphenyl)-N-(2,5-difluorobenzyl)-1,2,4-oxadiazole-3-carboxamide], with 15.7 µM.

`O=C(NCc1cccc(C(F)(F)F)c1)c1nc(-c2cc(Br)c(O)c(Br)c2)no1` [27a, 3-(3,5-dibromo-4-hydroxyphenyl)-N-(3-(trifluoromethyl)benzyl)-1,2,4-oxadiazole-5-carboxamide]: the IC50 came out at 14.6 µM.

For the compound `CN(Cc1cccc(Oc2ccccc2)c1)C(=O)c1nc(-c2cc(Cl)c(O)c(Cl)c2)no1` [144a, 3-(3,5-dichloro-4-hydroxyphenyl)-N-methyl-N-(3-phenoxybenzyl)-1,2,4-oxadiazole-5-carboxamide], the IC50 was 6.33 µM.

Still in this experiment, the particulars now being: thiadiazole-containing compounds (Table 12), read-out: IC50.
For the compound `Oc1c(Cl)cc(-c2nnc(COc3cccc(C(F)(F)F)c3)s2)cc1Cl` [7h, 2,6-dichloro-4(5-((3-(trifluoromethyl)phenoxy)methyl)-1,3,4-thiadiazol-2-yl)phenol], the IC50 was 23.4 µM. `CN(CCO)C(=O)COc1c(Cl)cc(-c2nnc(CN3c4ccccc4Sc4ccccc43)s2)cc1Cl` [8h, 2-(4-(5-((10H-phenothiazin-10-yl)methyl)-1,3,4-thiadiazol-2-yl)-2,6-dichlorophenoxy)-N-(2-hydroxyethyl)-N-methylacetamide]: the IC50 stood at 8.64 µM.

The experiment is the same for the next values; noted with them: triazine-containing compounds (Table 8 and 8′), read-out: IC50.
Consider `Oc1c(Br)cc(-c2cnc(OCc3cccc(OCc4ccccc4)c3)nn2)cc1Br` [89e, 4-(3-(3-(benzyloxy)benzyloxy)-1,2,4-triazin-6-yl)-2,6-dibromophenol], for which the IC50 was 1.47 µM.

Still in this experiment, the particulars now being: triazole-containing compounds (c series), average of at least 2 runs unless annotated n = 1, read-out: IC50.
On to `CN(Cc1cccc(C(F)(F)F)c1)C(=O)c1n[nH]c(-c2cc(Cl)c(O)c(Cl)c2)n1` [90c, 5-(3,5-dichloro-4-hydroxyphenyl)-N-methyl-N-(3-(trifluoromethyl)benzyl)-1H-1,2,4-triazole-3-carboxamide], for which the IC50 stood at 24.1 µM.

The values are drawn from patent US20100144733A1, “Compounds, compositions and methods comprising heteroaromatic derivatives” (Institute for OneWorld Health, priority 2008, published 2010).
